Laboratory results from patent US12053451B2, “Arginase inhibitors and their therapeutic applications” (OncoArendi Therapeutics S.A., priority 2016, dated 2024).
Structures can show the parent of a compound that is named as a salt.

Key:
[1] = molecular target: T1, recombinant human arginase 1 (Homo sapiens, UniProt P05089); test: Human arginase activity assay (urea measurement), arginase 1; type: biochemical; conditions: recombinant human arginase 1, pH 7.4, 37° C., 60 min; * = value for the most potent diastereoisomer or the mixture of diastereoisomers; read-out: Activity Class (ARG I)
T1 construct: purchased Biolegend 552502
T1 sequence (P05089 1-322): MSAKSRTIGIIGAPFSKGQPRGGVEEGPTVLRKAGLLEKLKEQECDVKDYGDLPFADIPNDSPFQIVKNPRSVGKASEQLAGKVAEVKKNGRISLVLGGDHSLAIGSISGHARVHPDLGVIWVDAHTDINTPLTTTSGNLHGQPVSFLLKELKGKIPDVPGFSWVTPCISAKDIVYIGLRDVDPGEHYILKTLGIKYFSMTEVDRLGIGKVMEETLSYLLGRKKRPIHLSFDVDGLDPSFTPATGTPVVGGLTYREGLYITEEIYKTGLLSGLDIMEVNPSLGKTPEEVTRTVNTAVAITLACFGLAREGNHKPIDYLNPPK
Experimental: (§1) Human Arginase Activity Assay
The assay was run in the 96-well plate format, each reaction in the total volume of 100 uL. The assay is based on urea measurement, which is a product of L-arginine enzymatic degradation. […] The color product is developed by adding a mixture of reagent A (4 mM oPA in 50 mM boric acid in 1M sulfuric acid, 0.03% Brij-35) and reagent B (4 mM NED in 50 mM boric acid in 1M sulfuric acid, 0.03% Brij-35) in equal proportions. The absorbance for each well was measured at 530 nm.
(§2) For positive control, only the enzyme and substrate were used, the negative controls contained substrate solution with assay buffer. After incubating the microtiter plate at 37° C. for 60 min 150 μL of mixed reagents A and B was added to each well to stop the reaction. Absorbance was measured (λ=530 nm) 20 minutes later, after color development. The urea production in the absence of any compound was considered the maximum arginase activity. The absorbance in the absence of arginase (background) was subtracted from all the values. The normalized OD was used to generate a concentration-response curve by plotting the percent of inhibition against log[concentration] of the compound and using regression analysis (GraphPad Prism 7.0) to compute the IC50 values.

[2] = molecular target: T2, recombinant human arginase 2 (Homo sapiens, UniProt P78540); test: Human arginase activity assay (urea measurement), arginase 2; type: biochemical; conditions: for selected examples class estimated from % of inhibition at 1 μM and 100 μM, * = most potent diastereoisomer or mixture of diastereoisomers, read-out: Activity Class (ARG II)
T2 construct: made in house; host or cells: CHO
T2 sequence (P78540 23-354): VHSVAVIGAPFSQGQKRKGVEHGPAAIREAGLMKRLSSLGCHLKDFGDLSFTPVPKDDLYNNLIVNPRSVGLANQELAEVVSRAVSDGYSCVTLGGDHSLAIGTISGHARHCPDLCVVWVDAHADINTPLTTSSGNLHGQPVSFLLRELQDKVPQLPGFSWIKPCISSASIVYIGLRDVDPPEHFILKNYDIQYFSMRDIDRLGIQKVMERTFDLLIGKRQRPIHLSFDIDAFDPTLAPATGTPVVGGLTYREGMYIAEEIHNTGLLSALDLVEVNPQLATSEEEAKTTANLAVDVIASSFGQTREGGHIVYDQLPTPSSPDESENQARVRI
Experimental: as §1
An enzymatic assay with recombinant human arginases 1 (Biolegend, Cat. No. 552502) and 2 (homemade in eukaryotic expression system of CHO, purified by FPLC) was used in order to assess inhibitory activity of the compounds. The assay was run in the 96-well plate format, each reaction in the total volume of 100 uL. The assay is based on urea measurement, which is a product of L-arginine enzymatic degradation. (Baggio et al. J Pharmacol. Exp. Ther. 1999, 290, 1409-1416). The color product is developed by adding a mixture of reagent A (4 mM oPA in 50 mM boric acid in 1M sulfuric acid, 0.03% Brij-35) and reagent B (4 mM NED in 50 mM boric acid in 1M sulfuric acid, 0.03% Brij-35) in equal proportions. The absorbance for each well was measured at 530 nm.
as §2, with “Briefly, to each well of a 96-well microtiter plate 40 μL of enzyme in the reaction assay buffer (pH 7.4, 100 mM sodium phosphate buffer, 130 mM NaCl, 1 mg/mL albumin), 50 μL of the test compound solution and 10 μL of enzyme substrate solution (L-arginine hydrochloride, natural pH 5.6, final concentration 20 mM and a cofactor—manganese chloride, final concentration 150 μM) was added. For” for “For”
(§3) For selected examples the activity class for ARG2 was estimated based on % of inhibition for 1 μM and 100 μM concentration of tested compounds.

[3] = molecular target: T3, intracellular arginase in macrophages isolated from murine bone marrow (BMDM) (Mus musculus, UniProt Q61176); test: Cell-based assay: intracellular arginase in bone marrow derived macrophages (BMDM), urea level; design: species or system Balb/c mice; conditions: murine BMDM with M-CSF and IL-4, urea measured 24 hours after compound; * = most potent diastereoisomer or mixture of diastereoisomers; read-out: Activity Class (BMDM)
T3 construct: endogenous in cells; host or cells: primary bone marrow derived macrophages from Balb/c mice, M-CSF and IL-4 treated
T3 sequence (Q61176 1-323): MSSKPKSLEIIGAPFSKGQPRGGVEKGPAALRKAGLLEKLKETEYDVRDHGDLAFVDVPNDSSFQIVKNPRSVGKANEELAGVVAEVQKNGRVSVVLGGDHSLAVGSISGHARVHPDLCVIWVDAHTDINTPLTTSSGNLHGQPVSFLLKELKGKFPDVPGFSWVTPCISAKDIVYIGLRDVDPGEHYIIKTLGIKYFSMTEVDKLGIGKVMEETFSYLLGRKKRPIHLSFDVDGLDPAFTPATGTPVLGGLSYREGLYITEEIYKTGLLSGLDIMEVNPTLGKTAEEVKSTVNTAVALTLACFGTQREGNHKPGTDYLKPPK
Experimental: Efficacy of Selected Examples Towards Intracellular Arginase in Macrophages Isolated from Murine Bone Marrow—Bone Marrow Derived Macrophages (BMDM)
Materials & Methods: The assay was performed according to modified literature protocol modification (Pineda-Torra I et al., Methods Mol Biol. 2015; 1339:101-9. Mia S et al. Scand J Immunol. 2014 May; 79(5):305-14). The femurs and tibias were isolated from Balb/c mice. Bones were cleaned from all attached tissues by using sterile swab without affecting the bone structure. Bones were sterilized by immersion in 70% ethanol for 5 min and then rinsed in PBS. The sides of the bones were cut off and flush with cold sterile PBS by using 26-G needle S into a 50 mL sterile tube with a cell strainer (Falcon™, Cat. No. U00149), until bone cavity appeared white. Then the cells were centrifuged (5 min at 500×G, 4° C.), washed twice with PBS and counted. Cells were plated in Petri dish in density of 1×10^6/mL and cultured in DMEM (Gibco, Cat. No. 31331-029) with 10% FBS, 1% pen-strep and 50 ng/mL M-CSF (PeproTech, Cat. No. 315-02), (37° C., 5% CO2). After five days cells were subcultured into P96 plate (BD, Cat. No. 353072) in density of 64 000 cells/well in medium supplemented with 50 ng/mL M-CSF and 20 ng/mL IL-4 (Biomibo Cat. No. 214-1). One day later exemplary compounds (dissolved in PBS) were added in several different concentrations and 24 hours later the level of urea was measured in each well (Jung D et al., Clin Chem. 1975, 21(8):1136-40). The concentration of urea in the absence of any compound was considered as the maximum. The absorbance of cell culture media (background) was subtracted from all the values.
as §3

IC50 [1] [nM] | IC50 [2] [nM] | IC50 [3] [nM] | Compound
1000 to 10000 | 1000 to 10000 | 10000 to 100000 | N[C@@]1(C(=O)O)CCC[C@@H](CCB(O)O)C1 (racemic) [Example 10, rac-(1S,3R)-1-Amino-3-(2-boronoethyl)cyclohexane-1-carboxylic acid hydrochloride]
100 to 1000 | 1000 to 10000 | 100 to 1000 | CN(C)C[C@H]1CC[C@@H](CCB(O)O)C[C@]1(N)C(=O)O (racemic) [Example 18, rac-(1R,2R,5R)-1-Amino-5-(2-boronoethyl)-2-((dimethylamino)methyl)-cyclohexane-1-carboxylic acid dihydrochloride]
1 to 100 | 100 to 1000 | 100 to 1000 | N[C@]1(C(=O)O)C[C@H](CCB(O)O)CC[C@H]1CN1CCCC1 (racemic) [Example 22, rac-(1R,2S,5R)-1-Amino-5-(2-boronoethyl)-2-(pyrrolidin-1-ylmethyl)-cyclohexane-1-carboxylic acid dihydrochloride]
100 to 1000 | 100 to 1000 | 1000 to 10000 | CC1(C)CCN(C[C@@H]2CC[C@@H](CCB(O)O)C[C@]2(N)C(=O)O)CC1 (racemic) [Example 26, rac-(1R,2S,5R)-1-amino-5-(2-boronoethyl)-2-((4,4-dimethylpiperidin-1-yl)methyl)cyclohexanecarboxylic acid dihydrochloride]
100 to 1000 | 100 to 1000 | 10000 to 100000 | CN(Cc1ccc(Cl)c(Cl)c1)C[C@@H]1CC[C@@H](CCB(O)O)C[C@]1(N)C(=O)O (racemic) [Example 28, rac-(1R,2S,5R)-1-amino-5-(2-boronoethyl)-2-(((3,4-dichlorobenzyl)(methyl)amino)methyl)cyclohexanecarboxylic acid dihydrochloride]
100 to 1000 | 100 to 1000 | 100 to 1000 | CCN(CC)C[C@@H]1CC[C@@H](CCB(O)O)C[C@]1(N)C(=O)O (racemic) [Example 30, rac-(1R,2S,5R)-1-amino-5-(2-boronoethyl)-2-((diethylamino)methyl)cyclohexanecarboxylic acid dihydrochloride]
1 to 100 | 100 to 1000 | 1 to 100 | N[C@]1(C(=O)O)C[C@H](CCB(O)O)CC[C@H]1CN1CCCCC1 (racemic) [Example 31, rac-(1R,2S,5R)-1-amino-5-(2-boronoethyl)-2-(piperidin-1-ylmethyl)cyclohexanecarboxylic acid dihydrochloride]
100 to 1000 | 1000 to 10000 | 10000 to 100000 | N[C@]1(C(=O)O)C[C@H](CCB(O)O)CC[C@H]1CN1CCc2ccccc2C1 (racemic) [Example 35, rac-(1R,2S,5R)-1-amino-5-(2-boronoethyl)-2-((3,4-dihydroisoquinolin-2(1H)-yl)methyl)cyclohexanecarboxylic acid dihydrochloride]
100 to 1000 | 1000 to 10000 | 10000 to 100000 | NC[C@@H]1C[C@@H](CCB(O)O)CC(N)(C(=O)O)C1 (mixture of isomers) [Example 54, rac-(3R,5R)-1-amino-3-(aminomethyl)-5-(2-boronoethyl)cyclohexanecarboxylic acid dihydrochloride]
1000 to 10000 |  | 10000 to 100000 | N[C@@]1(C(=O)O)CNC[C@@H](CCB(O)O)C1 (racemic) [Example 57, rac-(3R,5S)-3-amino-5-(2-boronoethyl)piperidine-3-carboxylic acid dihydrochloride]
100 to 1000 | 1000 to 10000 | 1000 to 10000 | N[C@@]1(C(=O)O)COC[C@@H](CCB(O)O)C1 (racemic) [Example 61, rac-(3R,5S)-3-amino-5-(2-boronoethyl)tetrahydro-2H-pyran-3-carboxylic acid hydrochloride]
100 to 1000 | 100 to 1000 | 10000 to 100000 | NC1CCC(CCB(O)O)CC1(N)C(=O)O (single isomer, unassigned) [Example 48, 1,2-diamino-5-(2-boronoethyl)cyclohexanecarboxylic acid dihydrochloride]
10000 to 100000 | 10000 to 100000 | 10000 to 100000 | CNC1(C(=O)O)C[C@H](CCB(O)O)CCC1CN (single isomer, unassigned) [Example 68, dihydrochloride]
100 to 1000 | 1000 to 10000 | 1000 to 10000 | N[C@@H](CCCCB(O)O)C(=O)O [Comparative example 1, reference compound]
1 to 100 | 100 to 1000 | 1000 to 10000 | NC(CCCCB(O)O)(CCNCCCc1ccc(Cl)cc1Cl)C(=O)O (centres unmarked) [Comparative example 2, reference compound]
